Results as given in PMC6222352, “Ultrasound Assisted Synthesis of 4-(Benzyloxy)-N-(3-chloro-2-(substitutedphenyl)-4-oxoazetidin-1-yl) Benzamide as Challenging Anti-Tubercular Scaffold” (Molecules : A Journal of Synthetic Chemistry and Natural …, 2018).
Converted amounts (≈) assume the structure as drawn. Where two headings read alike, the source gives them in different places.

Tests used:
[1] = system: Mycobacterium tuberculosis H37Ra (ATCC 25177); test: In vitro anti-tubercular activity by XTT Reduction Menadione assay (XRMA); assay type: cell-based; settings: 192 h, read-out: Mycobacterium tuberculosis H37Ra (ATCC 25177) IC50
Experimental: All the synthesized compounds 6a–j were screened for their in vitro anti-tubercular activity against MTB H37Ra (ATCC 25177). Rifampicin was used as a positive control.
In Vitro Anti-Tubercular Activity by the XTT Reduction Menadione Assay (XRMA) Method
Mycobacterium tuberculosis H37Ra (ATCC 25177) strains were obtained from AstraZeneca, India. The stock culture was maintained at −80 °C and subcultured once in a liquid M. pheli medium which contained 0.5 g KH2PO4, 0.25 g trisodium citrate, 60 mg MgSO4, 0.5 gm asparagine, and 2 mL glycerol in distilled water (100 mL) followed by pH adjustment to 6.6. Bacilli stock cultures were grown in M. pheli medium at 37 °C with continuous agitation at 150 RPM;, it takes at least 8–10 days for OD 1 at 620 nm. Stock solutions (10 mg/mL) of all the synthesized compounds were prepared in DMSO and were evaluated for in vitro anti-tubercular activity against Mycobacterium tuberculosis H37Ra (ATCC 25177) in a liquid medium using an established XTT Reduction Menadione assay (XRMA) method. Briefly, the 96 wells plate received 248.5 μL of M. Pheli medium consisting of bacilli and 2.5 μL of test solutions in serial dilution (12.5, 6.25, 3.125, 1.5625, 0.78 μg/mL). The plates were sealed with a 96-well sealing sheet and incubated at 37 °C for 8 days. Post incubation, XRMA was carried out to estimate viable cells present in different wells of the assay plate. The absorbance was read on a micro plate reader (Spectramax plus384 plate reader, Molecular Devices Inc., San Jose, CA, USA) at 470 nm filter against a blank prepared from cell-free wells. Absorbance given by cells treated with the vehicle alone was taken as 100% cell growth. MIC and IC50 values of compounds were calculated by using Origin 6 software. Percent inhibition was calculated by using following formula:% Inhibition = [(absorbance of Control − absorbance of Test)/(absorbance of Control − absorbance of Blank)] × 100(1) where control is the medium with bacilli along with vehicle and blank is cell-free medium. The drug in clinical use, rifampicin was used as a reference.

[2] = system: human cervical cancer cell line HeLa; test: In vitro cytotoxicity by MTT assay; assay type: cell-based; settings: 48 h, concentration range 100–0.1 μg/mL, read-out: Hela Cells IC50
Experimental: To lowers the failure of potential therapeutics at later stages of clinical trials toxicity analysis of synthesized compounds at the early stage of research work plays a very important role. To examine the safety of the synthesized compounds, 6a–j were evaluated for their toxicity against human cervical cancer cell line HeLa using the concentration range between 100–0.1 μg/mL.
All the synthesized compounds were tested for their cytotoxicity by a modified MTT assay as described previously. Briefly, cells were seeded at the density of 1 × 10^5 cells/mL in a 96-well plate. The plates were incubated overnight in CO2 incubator (37 °C under 5% CO2 and 95% air in a humidified atmosphere). Next day, cells were treated with synthesized compounds at 10-fold dilution (100–0.1 µg/mL) and incubated for an additional 48 h. Paclitaxel was used as positive control. Post incubation, cell medium was replaced with MTT (0.5 mg/mL)-PBS medium and incubated for 2–4 h to form the reduced MTT or Formazan crystals. This reduced MTT or Formazan crystals were solubilized by addition of 100 µL of SDS-DMF (20% SDS in 50% DMF). The optical density was read on a microplate reader (Spectramax plus 384 plate reader, Molecular Devices Inc.) at 570 nm filter against a blank prepared from cell-free wells. Absorbance given by cells treated with the vehicle alone was taken as 100% cell growth. IC50 and MIC values were calculated from graphs, using Origin Pro software. Where DMSO treated culture cells is control and culture medium without cells is blank. The percent cytotoxicity in the presence of test fractions was calculated by the following formula:Percent cytotoxicity = [(average absorbance of control − absorbance of a compound)/(absorbance of control − absorbance of blank)] × 100(2)

[3] = XRMA, 8 days incubation at 37 °C, liquid M. pheli medium

Row | SMILES | IC50 [1, 3] | IC50 [2] | IC50 [1]
1 | O=C(NN1C(=O)C(Cl)C1c1ccc(O)cc1)c1ccc(OCc2ccccc2)cc1 (stereo not shown) [Derivative 6a, 4-(Benzyloxy)-N-(3-chloro-2-(4-hydroxyphenyl)-4-oxoazetidin-1-yl) benzamide] | 0.652 µg/mL (≈ 1.54 µM) | 82.6 µg/mL (≈ 195 µM) | 
2 | COc1ccc(C2C(Cl)C(=O)N2NC(=O)c2ccc(OCc3ccccc3)cc2)cc1 (stereo not shown) [Derivative 6b, 4-(Benzyloxy)-N-(3-chloro-2-(4-methoxyphenyl)-4-oxoazetidin-1-yl) benzamide] | 0.918 µg/mL (≈ 2.1 µM) | 54.9 µg/mL (≈ 126 µM) | 
3 | O=C(NN1C(=O)C(Cl)C1c1ccc(F)cc1)c1ccc(OCc2ccccc2)cc1 (stereo not shown) [Derivative 6c, 4-(Benzyloxy)-N-(3-chloro-2-(4-fluorophenyl)-4-oxoazetidin-1-yl) benzamide] | 0.85 µg/mL (≈ 2 µM) | 31.6 µg/mL (≈ 74.4 µM) | 
4 | O=C(NN1C(=O)C(Cl)C1c1ccc(Cl)cc1)c1ccc(OCc2ccccc2)cc1 (stereo not shown) [Derivative 6d, 4-(Benzyloxy)-N-(3-chloro-2-(4-chlorophenyl)-4-oxoazetidin-1-yl) benzamide] | 1.34 µg/mL (≈ 3.04 µM) | 70.4 µg/mL (≈ 159 µM) | 
5 | O=C(NN1C(=O)C(Cl)C1c1cccc([N+](=O)[O-])c1)c1ccc(OCc2ccccc2)cc1 (stereo not shown) [Derivative 6e, 4-(Benzyloxy)-N-(3-chloro-2-(3-nitrophenyl)-4-oxoazetidin-1-yl) benzamide] | 0.654 µg/mL (≈ 1.45 µM) | > 100 µg/mL | 
6 | COc1ccc(C2C(Cl)C(=O)N2NC(=O)c2ccc(OCc3ccccc3)cc2)cc1OC (stereo not shown) [Derivative 6f, 4-(Benzyloxy)-N-(3-chloro-2-(3,4-dimethoxyphenyl)-4-oxoazetidin-1-yl) benzamide] | 1.72 µg/mL (≈ 3.67 µM) | 44.1 µg/mL (≈ 94.4 µM) | 
7 | COc1cc(C2C(Cl)C(=O)N2NC(=O)c2ccc(OCc3ccccc3)cc2)ccc1O (stereo not shown) [Derivative 6g, 4-(Benzyloxy)-N-(3-chloro-2-(4-hydroxy-3-methoxyphenyl)-4-oxoazetidin-1-yl) benzamide] | 0.718 µg/mL (≈ 1.59 µM) | > 100 µg/mL | 
8 | CCOc1cc(C2C(Cl)C(=O)N2NC(=O)c2ccc(OCc3ccccc3)cc2)ccc1O (stereo not shown) [Derivative 6h, 4-(Benzyloxy)-N-(3-chloro-2-(3-ethoxy-4-hydroxyphenyl)-4-oxoazetidin-1-yl) benzamide] | 0.85 µg/mL (≈ 1.82 µM) | > 100 µg/mL | 
9 | O=C(NN1C(=O)C(Cl)C1c1ccc(OCc2ccccc2)cc1)c1ccc(OCc2ccccc2)cc1 (stereo not shown) [Derivative 6i, 4-(Benzyloxy)-N-(2-(4-(benzyloxy)phenyl)-3-chloro-4-oxoazetidin-1-yl) benzamide] | 1.31 µg/mL (≈ 2.55 µM) | 89.2 µg/mL (≈ 174 µM) | 
10 | O=C(NN1C(=O)C(Cl)C1c1cccs1)c1ccc(OCc2ccccc2)cc1 (stereo not shown) [Derivative 6j, 4-(Benzyloxy)-N-(3-chloro-2-oxo-4-(thiophen-2-yl)azetidin-1-yl) benzamide] | 0.786 µg/mL (≈ 1.9 µM) | 33.2 µg/mL (≈ 80.4 µM) | 
11 | CC(=O)O[C@H]1C(=O)[C@@]2(C)[C@H]([C@H](OC(=O)c3ccccc3)[C@]3(O)C[C@H](OC(=O)[C@H](O)[C@@H](NC(=O)c4ccccc4)c4ccccc4)C(C)=C1C3(C)C)[C@]1(OC(C)=O)CO[C@@H]1C[C@@H]2O [Paclitaxel, reference compound] |  | 0.0056 µg/mL (≈ 0.00656 µM) | 
12 | CO[C@H]1/C=C/O[C@@]2(C)Oc3c(C)c(O)c4c(O)c(c(/C=N/N5CCN(C)CC5)c(O)c4c3C2=O)NC(=O)/C(C)=C\C=C\[C@H](C)[C@H](O)[C@@H](C)[C@@H](O)[C@@H](C)[C@H](OC(C)=O)[C@@H]1C [Rifampicin, reference compound] |  |  | 0.004 µg/mL (≈ 0.00486 µM)
